The values below come from patent publication EP1101492A1, “NOVEL REMEDIES FOR ALLERGIC DISEASES” (FUJI YAKUHIN KOGYO KABUSHIKI KAISHA, priority 1998, dated 2000).

Data set [1] is described as follows: Body weight gain in sensitized mice. The format is in vivo. The note with it: test compound 50 µg/ear/dose, prednisolone 5 µg/ear/dose, in ethanol painted twice a day, Days 1, 4 and 7, vs solvent control (ethanol). How it is done:
Experimental atopic dermatitis model mice sensitized in the same manner as in Example 1 were examined for influence on body weight gains.
Each mouse was measured for its body weight not only immediately before the start in painting but also on Days 1, 4 and 7 after the start in painting. Each gain in body weight was calculated and considered to indicate an effect on body weight changes affected by said treatments.

Data set [2] deals with mouse contact-type (type IV) dermatitis models. Description: Type IV allergic dermatitis (oxazolone-induced auricle edema). The data set is classed as in vivo, Balb/c mice. The note with it: 50 mg/mL in ethanol. How it is done: Mice (male, Balb/c, 6 weeks old, 20 to 25 g) were sensitized by painting a 3% solution of oxazolone (100 µL) abdominally. Six days after sensitization, a 0.5% solution of oxazolone in acetone was painted on both sides of a right ear at a dose of 10 µL to raise auricle edema. An untreated group was painted with the solvent (acetone) alone onto both sides of a left ear of the same mouse at 10 µL. At 24 hours after edema-induction, each mouse was sacrificed with ether and an equivalent each of right and left auricles was stamped out with a puncher (diameter: 6 mm). Both left and right auricle sections were measure for their weight and each percent edema was calculated (Kazuo Ouchi (Ed.), "Seibutsu Yakukagaku Jikken Koza, Ensho To Allergy (Inflammation and Allergy) I-1", 1993, Hirokawa Publishing Co., Japan) Percent Edema (%) =((Right Auricular Segment Weight - Left Auricular Segment Weight))/(Left Auricular Segment Weight)× 100 [formula]
The solvent (ethanol) alone was painted on a left auricle at the same dose (treated group). Unsensitized mice were also treated for induction similarly and then treated with the compound of the present invention, only followed by examination for the potency of the compound of the present invention on auricles (unsensitized group). The number of animals used in the test was set 4 per group. […]

In data set [3] the test system is allergic peritonitis. As to the kind of experiment: Allergic peritonitis induced with ragweed pollen extract (peritoneal exudate cells). The data set is classed as in vivo, Balb/c mice. The following applies: ragweed pollen extract challenge; 30 mg/kg i.p. 5 minutes prior to induction, 3, 6 and 12 hours post-induction; 24 hours after induction. How it is done: Each efficacy on allergic peritonitis was examined according to methods as disclosed in Ouchi et al., "Seibutsu Yakukagaku Jikken Koza, Ensho To Allergy (Inflammation and Allergy) I-3", pp.139 to 151, Hirokawa Publishing Co., Japan and Spicer et al., The International Archives of Allergy and Applied Immunology, 81: 81 to 84, 1986.
A ragweed (Ambrosia artemisiaefolia) pollen extract (1:100, Torii Pharmaceutical Co., Ltd.) was diluted 10-fold with physiological saline and administered subcutaneously to male Balb/c mice (7 weeks old, 20 to 23 g, purchased from JAPAN SLC, Inc.) on Days 0 and 1 at a single dose of 0.1 mL and further on Days 6, 8 and 14 at a single dose of 0.2 mL for sensitization. On Day 20 after the initial sensitization, an antigen solution for induction (a mixture of the aforementioned 10-fold diluted ragweed pollen extract, 50 units/mL of penicillin G potassium, and 0.05 mg/mL of streptomycin sulfate) was administered intraperitoneally to each animal at a dose of 0.2 mL to raise allergic peritonitis. […]
Twenty four hours after induction, mice were sacrificed under ether […] and each penitoneal cavity was lavaged twice or thrice with a washout medium (total volume: 5 mL, physiological saline containing 10 units/mL of heparin). […] The retrieved washout medium was measured for its yield (mL) and the number of exudate cells therein by using Turk solution and counting on a haemocytometer and a total number of PEC was calculated. […] After staining, PEC was subjected to fractional counts under a microscope with classification into eosinophils, neutrophils, lymphocytes/macrophages and basophils based on their form and stain nature (more than 500 PEC per specimen were randomly counted). […] After counting, intraperitoneal exudation inhibition rates were calculated by the following formula and expressed as the therapeutic efficacies: Inhibition Rate (%) =[1 -((PEC in Sensitized/Drug-Treated Mouse) - (PEC in Unsensitized/Saline-Treated Mouse))/((PEC in Sensitized/Saline-Treated Mouse) - (PEC in Unsensitized/Saline-Treated Mouse))]× 100 [formula]

Data set [4] in a line: Body weight gain in mice. The note with it: test compounds 60 mg/kg s.c., prednisolone 10 mg/kg i.p., once a day for 6 days (Days 0-5), average ± standard deviation.
Method: Accordingly, for assessing the side-effect each of the following test compounds an action on body weight gains was examined.
Next the mice were measured for their body weight. Each body weight gain was calculated on Days 5, 7 and 10 post-administration based on the body weight just prior to administration.
In data set [5] the test system is guinea pig experimental bronchial asthma models. As to the kind of experiment: Experimental bronchial asthma model (ovalbumin inhalation): airway resistance and asthmatic death.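 Further: female Std:Hartley guinea pigs sensitized by inhaling nebulized ovalbumin once daily for 8 consecutive days, 8 to 11 animals per group.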
Method: Guinea pigs (female, Std:Hartley, 3 weeks old, 200 to 250 g) were individually housed in a plastic chamber (width, 200 mm; depth, 300 mm; height, 167 mm). Aqueous ovalbumin (10 mg/mL) was administered to the guinea pigs once a day for sensitization by 10 min. inhalation with a nebulizer (5B, Nippon Shoji K.K.: flow rate, 6 L/min.) at a dose of 10 mg/mL during 8 cosecutive days. On Day 7 after the final sensitization, the guinea pigs were housed in a plastic chamber and inhaled using a nebulizer with a solution of ovalbumin (10 mg/mL) in physiological saline for 1 min. for elicitation (Matsumoto, T., et al., The Journal of Pharmacology and Experimental Therapeutics, 269: 1236-1244, 1994). The number of animals employed in the experiment was set to the extent there are at least 6 as individuals escaping asthmatic death. A solution of a test compound (Compound No. 130, 15 mg/kg) in water for injection was administered subcutaneously twice, i.e., 24 hours and 2 hours prior to elicitation. Similarly, the solvent alone was also administered to a negative control group. A suspension of prednisolone (10 mg/kg) in 0.5% aqueous methyl cellulose was administered orally twice, i.e., 24 hours and 2 hours prior to elicitation. Similarly, the solvent alone was also administered to another control group.
The evaluation for efficacies was conducted in terms of airway resistance. For this purpose, an apparatus dedicated to the measurement of airway resistance (K.K. Medical Agent) was employed. Measurement includes setting a guinea pig in a test chamber under a not-anesthetized condition, applying sinusoidal pressure waves of 30 Hz components to a part below the neck of the animal from the back side of the chamber, measuring respiratory waves of 30 Hz components leaking through the mouth (volume of 30 Hz air flow passing through the respiratory tract) in front of the neck, and calculating airway resistance mechanically. Measurement was carried out immediately prior to the first drug treatment (24 hours before elicitation), just prior to elicitation, 10 minutes, 1, 2, 4, 6, and 8 hours post-elicitation.
It was visually observed by a person carrying out said test in terms, of the appearance of cyanosis or suffocative death (asthmatic death) due to respiratory obstruction.
Guinea pigs were sensitized with ovalbumin and asthma was induced on Day 7 after final sensitization in the same manner as in Example 20. The number of animals employed in the experiment was set to the extent there are at least 6 as individuals escaping asthmatic death (8 to 11 animals/group). In the same manner as in Example 20, the animals were measured for airway resistance mechanically and each percent change (%) in airway resistance was calculated (each value just prior to elicitation was set as 100%). Each percent amelioration in airway resistance was calculated from the percent changes in airway resistance according to the following formula: Amelioration in Airway Resistance (%) = 1 -[((Percent Change in Airway Resistance after Drug-Administration) - (Value just prior to Challenge (100)))/((Percent Change in Airway Resistance after Solvent-Administration) - (Value just prior to Challenge (100)))]× 100 [formula]
Setting [6] is: asthmatic death due to cyanosis within several minutes after elicitation, Compound No. 130 15 mg/kg s.c., prednisolone 10 mg/kg orally, 24 and 2 hours prior to elicitation.

Take `CNC(=O)[C@H](Cc1ccc(NC(=N)N)cc1)NC(=O)[C@H](CC(C)C)C(CCCc1ccccc1)C(=O)NO` (single isomer, unassigned) [Compound No. 130, N-[4-(N-Hydroxyamino)-2(R)-isobutyl-3(R or S)-(3-phenyltrimethylene)succinyl)-L-4'-guanidophenylalanine-N-methylamide 1 acetate]: in data set [1], the “gain in body weight (FIG. 10)” value is recorded as “almost equivalent to that in the solvent control group”. Moreover, the “development of auricle edemas (FIG. 13)” value in data set [2] (10 µL per side painted on right auricle 0.5 hr prior to and 6 hours after edema-induction, 24 hours after induction) is “amelioration of auricle edemas”. In addition, in data set [2] (unsensitized mice, 10 µL per side painted twice), the “effect of the compound alone on auricles (FIG. 13)” value is “almost free of swelling and/or thinning”. For the same molecule, in data set [3], the “decrease in total PEC number” value amounted to 143.8%, the “inhibition of infiltration of eosinophils into the peritoneal cavity” value stood at 57.2% and the “inhibition of infiltration of lymphocytes/macrophages into the peritoneal cavity” value worked out at 219.0%. In data set [4] (non-administered 0.50± 0.23), the “Body Weight Gain, Observation Day 5” value is reported as 0.57± 0.61. Besides, the “Body Weight Gain, Observation Day 7” value in data set [4] (non-administered 0.80± 0.48) was 0.77± 0.55. The “Body Weight Gain, Observation Day 10” value in data set [4] (non-administered 1.07± 0.58) stood at 1.20± 0.26. Also, the “airway resistance (FIG. 12)” value in data set [5] (15 mg/kg s.c. 24 hours and 2 hours prior to elicitation, IAR 1 hour, LAR 6 hours post-elicitation) is given as “significant reduction of the increased airway resistance”. Further, in data set [5] (setting [6]), the “% Mortality” value was 0.0% and the “(Dead Animals)/(Tested Animals)” value is on record as 0/10.
